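Cultured in 96-well plates, cells were exposed to test compound for 48 hours across five concentrations. GI50: concentration for 50% inhibition of growth. TGI: total growth inhibition.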
Columns and labels:
Assay in all cases: NCI tumour cell line growth inhibition, 48 h
786-0 renal = tested on: 786-0 renal
A498 renal = tested on: A498 renal
A549 NSCLC = tested on: A549 NSCLC
ACHN renal = tested on: ACHN renal
BT-549 breast = tested on: BT-549 breast
CAKI-1 renal = tested on: CAKI-1 renal
CCRF-CEM leukemia = tested on: CCRF-CEM leukemia
COLO 205 colon = tested on: COLO 205 colon
EKVX NSCLC = tested on: EKVX NSCLC
HCC-2998 colon = tested on: HCC-2998 colon
HCT-116 colon = tested on: HCT-116 colon
HCT-15 colon = tested on: HCT-15 colon
HL-60(TB) leukemia = tested on: HL-60(TB) leukemia
HOP-62 NSCLC = tested on: HOP-62 NSCLC
HOP-92 NSCLC = tested on: HOP-92 NSCLC
HS 578T breast = tested on: HS 578T breast
HT29 colon = tested on: HT29 colon
IGROV1 ovarian = tested on: IGROV1 ovarian
K-562 leukemia = tested on: K-562 leukemia
LOX IMVI melanoma = tested on: LOX IMVI melanoma
M14 melanoma = tested on: M14 melanoma
MALME-3M melanoma = tested on: MALME-3M melanoma
MCF7 breast = tested on: MCF7 breast
MDA-MB-231 breast = tested on: MDA-MB-231 breast
MDA-MB-435 = tested on: MDA-MB-435
MOLT-4 leukemia = tested on: MOLT-4 leukemia
NCI-H226 lung = tested on: NCI-H226 lung
NCI-H23 lung = tested on: NCI-H23 lung
NCI-H460 lung = tested on: NCI-H460 lung
NCI-H522 lung = tested on: NCI-H522 lung
NCI/ADR-RES ovarian = tested on: NCI/ADR-RES ovarian
OVCAR-3 ovarian = tested on: OVCAR-3 ovarian
OVCAR-4 ovarian = tested on: OVCAR-4 ovarian
OVCAR-5 ovarian = tested on: OVCAR-5 ovarian
OVCAR-8 ovarian = tested on: OVCAR-8 ovarian
PC-3 prostate = tested on: PC-3 prostate
RPMI-8226 leukemia = tested on: RPMI-8226 leukemia
SF-268 CNS = tested on: SF-268 CNS
SF-295 CNS = tested on: SF-295 CNS
SF-539 CNS = tested on: SF-539 CNS
SK-MEL-2 melanoma = tested on: SK-MEL-2 melanoma
SK-MEL-28 melanoma = tested on: SK-MEL-28 melanoma
SK-MEL-5 melanoma = tested on: SK-MEL-5 melanoma
SK-OV-3 ovarian = tested on: SK-OV-3 ovarian
SN12C renal = tested on: SN12C renal
SNB-19 CNS = tested on: SNB-19 CNS
SNB-75 CNS = tested on: SNB-75 CNS
SW-620 colon = tested on: SW-620 colon
T-47D breast = tested on: T-47D breast
TK-10 renal = tested on: TK-10 renal
U251 CNS = tested on: U251 CNS
UACC-257 melanoma = tested on: UACC-257 melanoma
UACC-62 melanoma = tested on: UACC-62 melanoma
UO-31 renal = tested on: UO-31 renal

Molecule COC(=O)c1oc2c(C(C)=O)c(OCCN3CCOCC3)c(OC)cc2c1C has a GI50 (786-0 renal) greater than 100 µM, a TGI (786-0 renal) greater than 100 µM and a GI50 (A498 renal) greater than 100 µM. It also gave a TGI (A498 renal) greater than 100 µM, a GI50 (A549 NSCLC) greater than 100 µM and a TGI (A549 NSCLC) greater than 100 µM. It also gave a GI50 (ACHN renal) greater than 100 µM, a TGI (ACHN renal) greater than 100 µM and a GI50 (BT-549 breast) greater than 100 µM. The TGI (BT-549 breast) was greater than 100 µM, the GI50 (CAKI-1 renal) was greater than 100 µM and the TGI (CAKI-1 renal) was greater than 100 µM. For the same molecule, the GI50 (CCRF-CEM leukemia) was greater than 100 µM, the TGI (CCRF-CEM leukemia) was greater than 100 µM and the GI50 (COLO 205 colon) was greater than 100 µM. The TGI (COLO 205 colon) was greater than 100 µM, the GI50 (EKVX NSCLC) was greater than 100 µM and the TGI (EKVX NSCLC) was greater than 100 µM. For the same molecule, the GI50 (HCC-2998 colon) was greater than 100 µM, the TGI (HCC-2998 colon) was greater than 100 µM and the GI50 (HCT-116 colon) was greater than 100 µM. For the same molecule, the TGI (HCT-116 colon) was greater than 100 µM, the GI50 (HCT-15 colon) was greater than 100 µM and the TGI (HCT-15 colon) was greater than 100 µM. The GI50 (HL-60(TB) leukemia) was greater than 100 µM, the TGI (HL-60(TB) leukemia) was greater than 100 µM and the GI50 (HOP-62 NSCLC) was greater than 100 µM. The TGI (HOP-62 NSCLC) was greater than 100 µM, the GI50 (HOP-92 NSCLC) was greater than 100 µM and the TGI (HOP-92 NSCLC) was greater than 100 µM. For the same molecule, the GI50 (HS 578T breast) was greater than 100 µM, the TGI (HS 578T breast) was greater than 100 µM and the GI50 (HT29 colon) was greater than 100 µM. The TGI (HT29 colon) was greater than 100 µM, the GI50 (IGROV1 ovarian) was greater than 100 µM and the TGI (IGROV1 ovarian) was greater than 100 µM. The GI50 (K-562 leukemia) was greater than 100 µM, the TGI (K-562 leukemia) was greater than 100 µM and the GI50 (LOX IMVI melanoma) was greater than 100 µM. The TGI (LOX IMVI melanoma) was greater than 100 µM, the GI50 (M14 melanoma) was greater than 100 µM and the TGI (M14 melanoma) was greater than 100 µM. For the same molecule, the GI50 (MALME-3M melanoma) was greater than 100 µM, the TGI (MALME-3M melanoma) was greater than 100 µM and the GI50 (MCF7 breast) was greater than 100 µM. It also gave a TGI (MCF7 breast) greater than 100 µM, a GI50 (MDA-MB-231 breast) greater than 100 µM and a TGI (MDA-MB-231 breast) greater than 100 µM. It also gave a GI50 (MDA-MB-435) greater than 100 µM, a TGI (MDA-MB-435) greater than 100 µM and a GI50 (MOLT-4 leukemia) greater than 100 µM. It also gave a TGI (MOLT-4 leukemia) greater than 100 µM, a GI50 (NCI-H226 lung) greater than 100 µM and a TGI (NCI-H226 lung) greater than 100 µM. The GI50 (NCI-H23 lung) was greater than 100 µM, the TGI (NCI-H23 lung) was greater than 100 µM and the GI50 (NCI-H460 lung) was greater than 100 µM. The TGI (NCI-H460 lung) was greater than 100 µM, the GI50 (NCI-H522 lung) was greater than 100 µM and the TGI (NCI-H522 lung) was greater than 100 µM. It also gave a GI50 (NCI/ADR-RES ovarian) greater than 100 µM, a TGI (NCI/ADR-RES ovarian) greater than 100 µM and a GI50 (OVCAR-3 ovarian) greater than 100 µM. The TGI (OVCAR-3 ovarian) was greater than 100 µM, the GI50 (OVCAR-4 ovarian) was greater than 100 µM and the TGI (OVCAR-4 ovarian) was greater than 100 µM. It also gave a GI50 (OVCAR-5 ovarian) greater than 100 µM, a TGI (OVCAR-5 ovarian) greater than 100 µM and a GI50 (OVCAR-8 ovarian) greater than 100 µM. For the same molecule, the TGI (OVCAR-8 ovarian) was greater than 100 µM, the GI50 (PC-3 prostate) was greater than 100 µM and the TGI (PC-3 prostate) was greater than 100 µM. It also gave a GI50 (RPMI-8226 leukemia) greater than 100 µM, a TGI (RPMI-8226 leukemia) greater than 100 µM and a GI50 (SF-268 CNS) greater than 100 µM. It also gave a TGI (SF-268 CNS) greater than 100 µM, a GI50 (SF-295 CNS) greater than 100 µM and a TGI (SF-295 CNS) greater than 100 µM. It also gave a GI50 (SF-539 CNS) greater than 100 µM, a TGI (SF-539 CNS) greater than 100 µM and a GI50 (SK-MEL-2 melanoma) greater than 100 µM. The TGI (SK-MEL-2 melanoma) was greater than 100 µM, the GI50 (SK-MEL-28 melanoma) was greater than 100 µM and the TGI (SK-MEL-28 melanoma) was greater than 100 µM. The GI50 (SK-MEL-5 melanoma) was greater than 100 µM, the TGI (SK-MEL-5 melanoma) was greater than 100 µM and the GI50 (SK-OV-3 ovarian) was greater than 100 µM. The TGI (SK-OV-3 ovarian) was greater than 100 µM, the GI50 (SN12C renal) was greater than 100 µM and the TGI (SN12C renal) was greater than 100 µM. It also gave a GI50 (SNB-19 CNS) greater than 100 µM, a TGI (SNB-19 CNS) greater than 100 µM and a GI50 (SNB-75 CNS) greater than 100 µM. The TGI (SNB-75 CNS) was greater than 100 µM, the GI50 (SW-620 colon) was greater than 100 µM and the TGI (SW-620 colon) was greater than 100 µM. For the same molecule, the GI50 (T-47D breast) was greater than 100 µM, the TGI (T-47D breast) was greater than 100 µM and the GI50 (TK-10 renal) was greater than 100 µM. It also gave a TGI (TK-10 renal) greater than 100 µM, a GI50 (U251 CNS) greater than 100 µM and a TGI (U251 CNS) greater than 100 µM. It also gave a GI50 (UACC-257 melanoma) greater than 100 µM, a TGI (UACC-257 melanoma) greater than 100 µM and a GI50 (UACC-62 melanoma) greater than 100 µM. For the same molecule, the TGI (UACC-62 melanoma) was greater than 100 µM, the GI50 (UO-31 renal) was greater than 100 µM and the TGI (UO-31 renal) was greater than 100 µM.
